The conditions of data set [1]: fatty acid released from the triglyceride substrate; cited from earlier work.
Data set [2] relates to lipase. As to the kind of experiment: Glyceryl trioctanoate digestion in the model gut system (MGS), glycerol release. The data set is classed as biochemical, porcine. Conditions: 2 mmol glyceryl trioctanoate; Orlistat at 2.5, 5 and 10 mg vs control digestion; FIG. 6.
Method: Fresh porcine bile was extracted from fresh procine gall bladders (collected on ice from abattoir). Approximately 50 gall bladders were collected per batch. The collected bile was pooled, mixed and frozen down in 25 ml aliquots for storage, as 25 ml is required for each replicate.
Glyceryl trioctanoate was used as the tryglyceride substrate for all assays of fat digestion reported herein. In these experiments, 2 mmol (0.94136 g) of glyceryl trioctanoate was added to the synthetic saliva preparations at T[−10] wherein T[−10] means 10 minutes prior to addition of the synthetic saliva to the test system.
At T[−10], salivary preparations containing substrate/sample/controls were prepared as indicated hereinbefore and incubated for 10 minutes on rollers. […]
In all the experiments, data samples of 0.5 ml were taken at T0, T5, T10, T15, T30, T45, T60, T60^B, T65, T70, T75, T90, T105, T120, T150 and T180, wherein (T60^B) represents a second sample at T60 which was taken after the addition of fresh porcine bile. […] The test samples were stored at 4° C. overnight to allow for precipitation and then centrifuged at 10,000 r.p.m. for 10 minutes, after which the supernatant was analysed. […]
Triglyceride digestion can be measured using ZenBio Glycerol Reagent A to quantify the release of glycerol. A 5 μl of sample was incubated with 80 μl Reagent A for 30 minutes and colour development was measured at 550 nm. […]

Broadly, the pKa is the pH at which an ionisable group is half protonated. Turning to `CCCC(=O)O` [Butyric Acid], in data set [1], the pKa is recorded as 4.84.

Turning to `CCCCCCCC/C=C\CCCCCCCC(=O)O` [Oleic Acid], the pKa in data set [1] was 9.95.

As for `CCCCCCCCCCC[C@@H](C[C@@H]1OC(=O)[C@H]1CCCCCC)OC(=O)[C@H](CC(C)C)NC=O` [Orlistat], in data set [2], the “total glycerol recovered from the model gut system after TCA precipitation” value was “varies in accordance with the level of Orlistat”.

With `CCCCCCCCCCCCCCCC(=O)O` [Palmitic Acid], the pKa in data set [1] is recorded as 9.7.

Turning to `CCCCCCCCCCCCCCCCCC(=O)O` [Stearic Acid], the pKa in data set [1] is listed as 10.15.

Source of the values: patent US10191062B2, “Model gut system” (priority 2013, dated 2019).
